# According to patent US20250171459A1, “2-METHYL-4',5'-DIHYDROSPIRO[PIPERIDINE-4,7'-THIENO[2,3-C]PYRAN] DERIVATIVES AS INHIBITORS OF APOL1 AND METHODS OF USING SAME” (Vertex Pharmaceuticals Incorporated, priority 2022, published 2025):
# Target: T1, APOL1 (Homo sapiens, UniProt O14791)
# T1 sequence (O14791 1-398 S342G/I384M): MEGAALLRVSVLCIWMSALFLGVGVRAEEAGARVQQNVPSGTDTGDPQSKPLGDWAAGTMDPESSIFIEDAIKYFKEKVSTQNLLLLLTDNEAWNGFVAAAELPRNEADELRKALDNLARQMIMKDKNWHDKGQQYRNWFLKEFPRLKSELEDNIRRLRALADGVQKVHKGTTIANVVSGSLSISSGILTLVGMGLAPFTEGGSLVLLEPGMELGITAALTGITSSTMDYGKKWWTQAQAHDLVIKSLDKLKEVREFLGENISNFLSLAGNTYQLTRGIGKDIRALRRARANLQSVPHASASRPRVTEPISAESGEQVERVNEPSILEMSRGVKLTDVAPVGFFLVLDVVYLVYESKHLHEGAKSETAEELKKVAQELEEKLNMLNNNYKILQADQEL
# Test: MultiTox-Fluor Multiplex Cytotoxicity Assay in tet-inducible APOL1 T-REx-HEK293 cells (cell rescue, ratio of dead to live cells)
# Type: cell-based
# Settings: tet-inducible transgenic APOL1 T-REx-HEK293 cell lines, 50 ng/mL tet, 24 hours; read-out: IP50 (i.e., IC50 for cell proliferation)
# Procedure, shortened: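 T-REx-HEK293 cells with tet-inducible APOL1 were treated with compound (10 μM top, 10-point 3-fold dilution, duplicate) plus 50 ng/mL tetracycline for 24 h at 37° C, in DMEM with 2% tet-free FBS. MultiTox-Fluor protease signals gave a dead/live ratio, normalized to no tet (100% viability) and tet alone (0%).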
row,Compound,IC50
1,"CS(=O)(=O)CCn1cc(CN2CCC3(CC2)OCCc2cc(Cl)sc23)cn1 [Compound 1169, 2′-chloro-1-((1-(2-(methylsulfonyl)ethyl)-1H-pyrazol-4-yl)methyl)-4′,5′-dihydrospiro[piperidine-4,7′-thieno[2,3-c]pyran]]",0.1 to 0.5 µM
2,COc1cc(OCC(N)=O)ccc1CN1CC[C@]2(C[C@@H]1C)OC[C@H](O)c1cc(Cl)sc12 [Compound 773],< 0.1 µM
3,CCc1cc2c(s1)CCOC21CCN(Cc2cn(CC3(O)CCOC3)nn2)C(C)C1 (centres unmarked) [Compound 77],0.5 to 1 µM
4,Cc1ncccc1CN1CC[C@]2(C[C@@H]1C)OCCc1c2sc(Cl)c1CO [Compound 736],0.5 to 1 µM
5,C[C@H]1C[C@@]2(CCN1Cc1cnn(CC(=O)NCC(F)F)c1)OCCc1c2sc(C(F)(F)F)c1CO [Compound 913],< 0.1 µM
6,C[C@H]1C[C@@]2(CCN1Cc1ccc(OCCO)cc1)OCCc1c2sc(Cl)c1CO [Compound 715],< 0.1 µM
7,"C[C@H]1C[C@@]2(CCN1C1COCC1O)OCCc1cc(C(F)(F)F)sc12 (stereo partly drawn) [Compound 866, 4-[(2′S, 7R)-2′-methyl-2-(trifluoromethyl)spiro[4,5-dihydrothieno[2,3-c]pyran-7,4′-piperidine]-1′-yl]tetrahydrofuran-3-ol]",0.1 to 0.5 µM
8,Cc1ccc(CN2CC[C@]3(C[C@@H]2C)OCCc2cc(Cl)sc23)c(C)n1 [Compound 675],0.1 to 0.5 µM
9,CC1COC2(CCN(Cc3cn(CCS(C)(=O)=O)nn3)[C@@H](C)C2)c2cc(Cl)sc21 (some centres unmarked) [Compound 540],< 0.1 µM
10,C[C@H]1C[C@@]2(CCN1Cc1cn(CCO)nn1)OCCc1cc(Cl)sc12 [Compound 627],0.1 to 0.5 µM
11,"C[C@H]1C[C@@]2(CCN1Cc1cn(CCS(C)(=O)=O)nn1)OCC(F)c1cc(Cl)sc12 (stereo partly drawn) [Compound 863, (2S,4R)-2′-chloro-4′-fluoro-2-methyl-1-((1-(2-(methylsulfonyl)ethyl)-1H-1,2,3-triazol-4-yl)methyl)-4′,5′-dihydrospiro[piperidine-4,7′-thieno[2,3-c]pyran]]",0.1 to 0.5 µM
12,C[C@H]1C[C@@]2(CCN1Cc1cnn(CC3(CO)COC3)c1)OCCc1c2sc(C(F)(F)F)c1CO [Compound 915],< 0.1 µM
13,CCc1cc2c(s1)CCOC21CCN(Cc2cn(CC3(OCCO)CCOC3)nn2)C(C)C1 (centres unmarked) [Compound 119],< 0.1 µM
14,CCc1cc2c(s1)CCO[C@@]21CCN(Cc2cn(CCN3C(=O)CCC3=O)nn2)[C@@H](C)C1 [Compound 173],0.1 to 0.5 µM
15,CCc1cc2c(s1)CCO[C@@]21CCN(C[C@H]2C[C@@H](NC(=O)OCC(C)C)C2)[C@@H](C)C1 [Compound 373],0.1 to 0.5 µM
16,"CCc1cc2c(s1)CCO[C@@]21CCN(CC2CN(C(=O)c3nonc3N)C2)[C@@H](C)C1 [Compound 422, (4-amino-1,2,5-oxadiazol-3-yl)-[3-[[(2′S,4R)-2-ethyl-2′-methyl-spiro[6,7-dihydrothieno[3,2-c]pyran-4,4′-piperidine]-1′-yl]methyl]azetidin-1-yl]methanone]",< 0.1 µM
17,CCc1cc2c(s1)CCOC21CCN(Cc2cn(C[C@H]3CC[C@@H](CO)O3)nn2)CC1 [Compound 1110],0.5 to 1 µM
18,CCc1cc2c(s1)CCO[C@@]21CCN(Cc2cn(CCO)nn2)[C@@H](C)C1 [Compound 154],< 0.1 µM
19,C[C@H]1C[C@@]2(CCN1CC1CCOCC1)OC[C@H](O)c1cc(Cl)sc12 [Compound 789],0.5 to 1 µM
20,CCc1cc2c(s1)CCO[C@@]21CCN(C[C@H]2C[C@@H](NS(=O)(=O)c3ccc(C(N)=O)cc3)C2)[C@@H](C)C1 [Compound 413],< 0.1 µM
21,CCc1cc2c(s1)CCOC21CCN(Cc2cnc(C(F)(F)F)[nH]2)CC1 [Compound 1144],0.5 to 1 µM
22,CCc1cc2c(s1)CCO[C@@]21CCN(Cc2cn([C@H]3CCN(C(=O)OC(C)(C)C)C3)nn2)[C@@H](C)C1 [Compound 17],< 0.1 µM
23,CCc1cc2c(s1)CCO[C@@]21CCN(C[C@H]2C[C@@H](NC(=O)c3cnc(C)s3)C2)[C@@H](C)C1 [Compound 320],< 0.1 µM
24,CC(O)Cn1cc(CN2CC[C@]3(C[C@@H]2C)OCCc2c3sc(C(F)(F)F)c2CO)nn1 (some centres unmarked) [Compound 1002],< 0.1 µM
25,"CCc1cc2c(s1)CCO[C@@]21CCN(C2COCC2O)[C@@H](C)C1 (stereo partly drawn) [Compound 233, 4-[(2′S,4R)-2-ethyl-2′-methyl-spiro[6,7-dihydrothieno[3,2-c]pyran-4,4′-piperidine]-1′-yl]tetrahydrofuran-3-ol]",0.1 to 0.5 µM

row,Compound,IC50
1,CCc1cc2c(s1)CCO[C@@]21CCN(C[C@H]2C[C@@H](NC(=O)CC3CC3(F)F)C2)[C@@H](C)C1 (some centres unmarked) [Compound 309],< 0.1 µM
2,C[C@H]1C[C@@]2(CCN1Cc1cnc(N3CCOCC3)nc1)OCCc1cc(Cl)sc12 [Compound 658],< 0.1 µM
3,CCc1cc2c(s1)CCO[C@@]21CCN(Cc2cn(Cc3nnc4n3CCCC4)nn2)[C@@H](C)C1 [Compound 52],< 0.1 µM
4,CCc1cc2c(s1)CCO[C@@]21CCN(CC2CN(C(=O)CS(=O)(=O)c3ccccc3)C2)[C@@H](C)C1 [Compound 456],0.1 to 0.5 µM
5,CCc1cc2c(s1)CCO[C@@]21CCN(CC2CN(C(=O)COC(C)(C)C)C2)[C@@H](C)C1 [Compound 442],< 0.1 µM
6,CCc1cc2c(s1)CCO[C@@]21CCN(C[C@H]2C[C@@H](NS(=O)(=O)c3ccccc3Cl)C2)[C@@H](C)C1 [Compound 409],< 0.1 µM
7,C[C@H]1C[C@@]2(CCN1Cc1cnn(CC3(O)CCC3)c1)OCCc1c2sc(C(F)(F)F)c1CO [Compound 948],< 0.1 µM
8,"Cc1cc2c(s1)[C@]1(CCN(Cc3cnn(CC(C)(CO)CO)c3)[C@@H](C)C1)OCC2 [Compound 1028, 2-[[4-[[(2′S, 7R)-2,2′-dimethylspiro[4,5-dihydrothieno[2,3-c]pyran-7,4′-piperidine]-1′-yl]methyl]pyrazol-1-yl]methyl]-2-methyl-propane-1,3-diol]",< 0.1 µM
9,CCc1cc2c(s1)CCO[C@@]21CCN(CC2CN(C(=O)c3nonc3C)C2)[C@@H](C)C1 [Compound 426],< 0.1 µM
10,"CCc1cc2c(s1)CCOC21CCN(Cc2cn(CC(O)C(C)(C)O)nn2)CC1 (centres unmarked) [Compound 1079, 1-(4-((2′-ethyl-6′,7′-dihydrospiro[piperidine-4,4′-thieno[3,2-c]pyran]-1-yl)methyl)-1H-1,2,3-triazol-1-yl)-3-methylbutane-2,3-diol]",0.1 to 0.5 µM
11,C[C@H]1C[C@@]2(CCN1C1COCC1O)OCCc1cc(CC(F)F)sc12 (some centres unmarked) [Compound 609],< 0.1 µM
12,"C[C@H]1C[C@@]2(CCN1Cc1cnn(CCS(C)(=O)=O)c1)OCC(O)c1c2sc(Cl)c1Cl (stereo partly drawn) [Compound 860, (2′S, 7R)-2,3-dichloro-2′-methyl-1′-[[1-(2-methylsulfonylethyl)pyrazol-4-yl]methyl]spiro[4,5-dihydrothieno[2,3-c]pyran-7,4′-piperidine]-4-ol]",< 0.1 µM
13,CCc1cc2c(s1)CCOC21CCN(Cc2ccc(C(=O)NCc3ccn(C)n3)nc2)CC1 [Compound 1059],0.1 to 0.5 µM
14,"C[C@H]1C[C@@]2(CCN1Cc1cn[nH]c1)OCCc1cc(Cl)sc12 [Compound 698, (2′S, 7R)-2-chloro-2′-methyl-1′-(1H-pyrazol-4-ylmethyl)spiro[4,5-dihydrothieno[2,3-c]pyran-7,4′-piperidine]]",< 0.1 µM
15,CCc1cc2c(s1)CCO[C@@]21CCN(Cc2cn(CC3CS(=O)(=O)CCO3)nn2)[C@@H](C)C1 (some centres unmarked) [Compound 96],< 0.1 µM
16,"C[C@H]1C[C@@]2(CCN1Cc1cnn(CC(O)C(C)(C)O)c1)OCC(O)(C(F)F)c1cc(Cl)sc12 (stereo in doubt) [Compound 829, 1-[4-[[(2′S,4R,7R)-2-chloro-4-(difluoromethyl)-4-hydroxy-2′-methyl-spiro[5H-thieno[2,3-c]pyran-7,4′-piperidine]-1′-yl]methyl]pyrazol-1-yl]-3-methyl-butane-2,3-diol]",< 0.1 µM
17,"Cc1sc2c(c1CO)CCO[C@@]21CCN(Cc2cnn(CCS(C)(=O)=O)c2)[C@@H](C)C1 [Compound 765, [(2′S, 7R)-2,2′-dimethyl-1′-[[1-(2-methylsulfonylethyl)pyrazol-4-yl]methyl]spiro[4,5-dihydrothieno[2,3-c]pyran-7,4′-piperidine]-3-yl]methanol]",< 0.1 µM
18,CCc1cc2c(s1)CCOC21CCN(Cc2ccc(C(=O)N3CC(CO)C3)nc2)CC1 [Compound 1050],< 0.1 µM
19,CCc1cc2c(s1)CCO[C@@]21CCN(Cc2cn(CC3(CO)CC3)nn2)[C@@H](C)C1 [Compound 150],0.1 to 0.5 µM
20,CCc1cc2c(s1)CCO[C@]21CCN(Cc2cnn(CCS(C)(=O)=O)c2)[C@@H](C)C1 [Compound 271],< 0.1 µM
21,"CCc1cc2c(s1)CCO[C@@]21CCN(Cc2cnc(Cl)nc2)[C@@H](C)C1 [Compound 198, (2′S,4R)-1′-[(2-chloropyrimidin-5-yl)methyl]-2-ethyl-2′-methyl-spiro[6,7-dihydrothieno[3,2-c]pyran-4,4′-piperidine]]",0.1 to 0.5 µM
22,CC1COC2(CCN(Cc3cn(CCS(C)(=O)=O)nn3)[C@@H](C)C2)c2cc(Cl)sc21 (some centres unmarked) [Compound 536],< 0.1 µM
23,CCc1cc2c(s1)CCO[C@@]21CCN(CC2CN(C(=O)c3cccc(CO)c3)C2)[C@@H](C)C1 [Compound 428],< 0.1 µM
24,COc1cc(CN2CC[C@]3(C[C@@H]2C)OCCc2c3sc(Cl)c2CO)ccc1OCC(N)=O [Compound 742],< 0.1 µM
25,CCc1cc2c(s1)CCO[C@@]21CCN(Cc2cn(Cc3nc(COC)no3)nn2)[C@@H](C)C1 [Compound 184],< 0.1 µM
